Tests used:
ER-α = biological target: T1, ER-α (Homo sapiens, UniProt P03372); assay: Breast Cancer Cell ER-α In Cell Western Assay (SP1); format: cell-based; details: MCF-7 cells, SP1 antibody, 4 or 24 hr post compound addition; for Emax: MCF7, read-out: ER-α In Cell Western Assay (SP1) Max Response; for DC50: read-out: ER-α In Cell Western Assay (SP1) IC50
T1 sequence (P03372 1-595): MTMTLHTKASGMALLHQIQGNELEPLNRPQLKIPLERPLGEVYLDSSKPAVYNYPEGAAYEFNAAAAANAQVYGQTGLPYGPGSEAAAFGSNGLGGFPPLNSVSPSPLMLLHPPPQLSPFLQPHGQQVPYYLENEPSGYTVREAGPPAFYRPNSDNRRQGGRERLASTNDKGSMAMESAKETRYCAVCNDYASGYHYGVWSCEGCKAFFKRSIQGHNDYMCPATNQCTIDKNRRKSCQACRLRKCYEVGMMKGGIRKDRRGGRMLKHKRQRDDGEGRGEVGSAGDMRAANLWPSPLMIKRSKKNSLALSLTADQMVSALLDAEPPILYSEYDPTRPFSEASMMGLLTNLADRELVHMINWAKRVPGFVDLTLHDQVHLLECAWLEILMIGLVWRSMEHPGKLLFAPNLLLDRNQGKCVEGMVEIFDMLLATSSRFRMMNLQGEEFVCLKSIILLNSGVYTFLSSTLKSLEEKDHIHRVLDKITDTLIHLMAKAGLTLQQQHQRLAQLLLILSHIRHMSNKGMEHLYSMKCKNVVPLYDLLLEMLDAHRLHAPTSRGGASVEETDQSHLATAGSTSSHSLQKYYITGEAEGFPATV
Procedure, shortened: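 ER-α protein levels measured by in-cell western with SP1 antibody, ratioed to DRAQ5 DNA signal and given as percent of untreated controls. Compounds added at 0.3–0.000003 μM final (eleven semilog points) to adherent MCF-7 cells in stripped serum; exposure 4 or 24 h before fixation.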

MCF-7 cells = assay: Breast Cancer Cell Viability Assay (MCF-7, CellTiter-Glo); format: cell-based; details: 5 days' compound exposure; for IC50: Homo sapiens, MCF7, 120 h
Procedure, shortened: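 Eleven-point semilog compound series, final 0.3-0.000003 μM, added to overnight-adhered MCF-7 cells (320/well; RPMI, 10% FBS, 20 mM HEPES) for 5 days. Viability read by CellTiter-Glo luminescence, background from medium without cells subtracted, expressed relative to untreated cells.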

| Emax (ER-α) [%] | DC50 (ER-α) [nM] | IC50 (MCF-7 cells) [nM] | SMILES | MCF7 Viability Assay Max Response (MCF-7 cells) |
| --- | --- | --- | --- | --- |
| ≥ 40 | ≤ 100 | ≤ 100 | CC/C(=C(/c1ccc(/C=C/C(=O)O)cc1)c1ccc2[nH]ncc2c1)c1ccc(OC)cc1F [Compound 129, (E)-3-(4-((E)-2-(2-Fluoro-4-methoxyphenyl)-1-(1H-indazol-5-yl)but-1-en-1-yl)phenyl)acrylic acid] | ++ (++ = a single % value ≧ 40%) |
| ≥ 40 | ≤ 100 | ≤ 100 | CC/C(=C(/c1ccc(/C=C/C(=O)O)cc1)c1ccc2[nH]ncc2c1)c1cc(OC)ccc1Cl [Compound 130, (E)-3-(4-((E)-2-(2-Chloro-5-methoxyphenyl)-1-(1H-indazol-5-yl)but-1-en-1-yl)phenyl)acrylic acid] | ++ (++ = a single % value ≧ 40%) |
| ≥ 40 | > 100 | > 100 | CC/C(=C(/c1ccc(/C=C/C(=O)O)cc1)c1ccc2[nH]ncc2c1)c1ccc(S(C)(=O)=O)cc1F [Compound 131, (E)-3-(4-((E)-2-(2-Fluoro-4-(methylsulfonyl)phenyl)-1-(1H-indazol-5-yl)but-1-en-1-yl)phenyl)acrylic acid] | ++ (++ = a single % value ≧ 40%) |
| ≥ 40 | ≤ 100 | ≤ 100 | [2H]C([2H])([2H])C([2H])([2H])/C(=C(/c1ccc(/C=C/C(=O)O)cc1)c1ccc2[nH]ncc2c1)c1ccc(Cl)cc1Cl [Compound 132, (E)-3-(4-((E)-2-(2,4-Dichlorophenyl)-3,3,4,4,4-pentadeutero-1-(1H-indazol-5-yl)but-1-en-1-yl)phenyl)acrylic acid] | ++ (++ = a single % value ≧ 40%) |
| ≥ 40 | > 100 | > 100 | CC/C(=C(/c1ccc(/C=C/C(=O)O)cc1)c1ccc2[nH]ncc2c1)c1cccc(S(C)(=O)=O)c1 [Compound 133, (E)-3-(4-((E)-1-(1H-Indazol-5-yl)-2-(3-(methylsulfonyl)phenyl)but-1-en-1-yl)phenyl)acrylic acid] | + (+ = a single % value < 40%) |
| ≥ 40 | ≤ 100 | ≤ 100 | CC/C(=C(/c1ccc(/C=C/C(=O)O)cc1)c1cc(F)c2[nH]ncc2c1)c1ccc(Cl)cc1Cl [Compound 134, (E)-3-(4-((E)-2-(2,4-Dichlorophenyl)-1-(7-fluoro-1H-indazol-5-yl)but-1-en-1-yl)phenyl)acrylic acid] | ++ (++ = a single % value ≧ 40%) |
| ≥ 40 | ≤ 100 | ≤ 100 | CC/C(=C(/c1ccc(/C=C/C(=O)O)cc1)c1ccc2[nH]ncc2c1)c1cccc(OC)c1Cl [Compound 135, (E)-3-(4-((E)-2-(2-Chloro-3-methoxyphenyl)-1-(1H-indazol-5-yl)but-1-en-1-yl)phenyl)acrylic acid] | ++ (++ = a single % value ≧ 40%) |
| ≥ 40 | ≤ 100 | ≤ 100 | CC/C(=C(/c1ccc(/C=C/C(=O)O)cc1)c1ccc2[nH]ncc2c1)c1ccc(Cl)cc1C#N [Compound 137, (E)-3-(4-((E)-2-(4-Chloro-2-cyanophenyl)-1-(1H-indazol-5-yl)but-1-en-1-yl)phenyl)acrylic acid] | ++ (++ = a single % value ≧ 40%) |
| ≥ 40 | ≤ 100 | ≤ 100 | CC/C(=C(/c1ccc(/C=C/C(=O)O)cc1)c1ccc2[nH]ncc2c1)c1ccc(F)cc1C#N [Compound 138, (E)-3-(4-((E)-2-(2-Cyano-4-fluorophenyl)-1-(1H-indazol-5-yl)but-1-en-1-yl)phenyl)acrylic acid] | ++ (++ = a single % value ≧ 40%) |
| ≥ 40 | ≤ 100 | ≤ 100 | CC/C(=C(/c1ccc(/C=C/C(=O)O)cc1)c1ccc2[nH]ncc2c1)c1ccc(C(F)(F)F)cc1C#N [Compound 139, (E)-3-(4-((E)-2-(2-Cyano-4-(trifluoromethyl)phenyl)-1-(1H-indazol-5-yl)but-1-en-1-yl)phenyl)acrylic acid] | ++ (++ = a single % value ≧ 40%) |
| ≥ 40 | – | ≤ 100 | CC/C(=C(/c1ccc(/C=C/C(=O)O)cc1)c1ccc2[nH]ncc2c1)c1ccc(C#N)cc1Cl [Compound 140, (E)-3-(4-((E)-2-(2-Chloro-4-cyanophenyl)-1-(1H-indazol-5-yl)but-1-en-1-yl)phenyl)acrylic acid] | ++ (++ = a single % value ≧ 40%) |
| ≥ 40 | ≤ 100 | > 100 | CC/C(=C(/c1ccc(/C=C/C(=O)O)cc1)c1ccc2[nH]ncc2c1)c1cccc(C#N)c1C [Compound 141, (E)-3-(4-((E)-2-(3-Cyano-2-methylphenyl)-1-(1H-indazol-5-yl)but-1-en-1-yl)phenyl)acrylic acid] | ++ (++ = a single % value ≧ 40%) |
| ≥ 40 | – | ≤ 100 | CC/C(=C(/c1ccc(/C=C/C(=O)O)cc1)c1ccc2[nH]ncc2c1)c1ccc(C#N)cc1C [Compound 142, (E)-3-(4-((E)-2-(4-Cyano-2-methylphenyl)-1-(1H-indazol-5-yl)but-1-en-1-yl)phenyl)acrylic acid] | ++ (++ = a single % value ≧ 40%) |
| ≥ 40 | ≤ 100 | > 100 | CC/C(=C(/c1ccc(/C=C/C(=O)O)cc1)c1ccc2[nH]ncc2c1)c1cc(C#N)ccc1C [Compound 143, (E)-3-(4-((E)-2-(5-Cyano-2-methylphenyl)-1-(1H-indazol-5-yl)but-1-en-1-yl)phenyl)acrylic acid] | ++ (++ = a single % value ≧ 40%) |
| ≥ 40 | ≤ 100 | ≤ 100 | CC/C(=C(/c1ccc(/C=C/C(=O)O)cc1)c1ccc2[nH]ncc2c1)c1ccc(OC)cc1C#N [Compound 144, (E)-3-(4-((E)-2-(2-Cyano-4-methoxyphenyl)-1-(1H-indazol-5-yl)but-1-en-1-yl)phenyl)acrylic acid] | ++ (++ = a single % value ≧ 40%) |
| ≥ 40 | ≤ 100 | ≤ 100 | CC/C(=C(/c1ccc(/C=C/C(=O)O)cc1)c1ccc2c(cnn2C)c1)c1ccccc1Cl [Compound 145, (E)-3-(4-((E)-2-(2-Chlorophenyl)-1-(1-methyl-1H-indazol-5-yl)but-1-en-1-yl)phenyl)acrylic acid] | ++ (++ = a single % value ≧ 40%) |
| ≥ 40 | ≤ 100 | ≤ 100 | Cn1ncc2cc(/C(=C(/c3ccccc3)C3CCC3)c3ccc(/C=C/C(=O)O)cc3)ccc21 [Compound 146, (E)-3-(4-((E)-2-Cyclobutyl-1-(1-methyl-1H-indazol-5-yl)-2-phenylvinyl)phenyl)acrylic acid] | ++ (++ = a single % value ≧ 40%) |
| ≥ 40 | ≤ 100 | ≤ 100 | CC/C(=C(/c1ccc(/C=C/C(=O)O)cc1)c1ccc2c(cnn2C)c1)c1ccc(F)cc1Cl [Compound 147, (E)-3-(4-((E)-2-(2-Chloro-4-fluorophenyl)-1-(1-methyl-1H-indazol-5-yl)but-1-en-1-yl)phenyl)acrylic acid] | ++ (++ = a single % value ≧ 40%) |
| ≥ 40 | ≤ 100 | ≤ 100 | CC/C(=C(/c1ccc(/C=C/C(=O)O)cc1)c1ccc2c(cnn2C(F)F)c1)c1ccc(F)cc1Cl [Compound 148, (E)-3-(4-((E)-2-(2-Chloro-4-fluorophenyl)-1-(1-(difluoromethyl)-1H-indazol-5-yl)but-1-en-1-yl)phenyl)acrylic acid] | ++ (++ = a single % value ≧ 40%) |
